Results as given in EP4389751A1, “HETEROCYCLIC COMPOUNDS AND USES THEREOF” (Kumquat Biosciences Inc., priority 2021, dated 2024).
Read-outs that look alike come from different tables or passages of the source.

Columns and labels:
[1] = target: T1, K-Ras G12S (Homo sapiens, UniProt P01116, G12S); assay: HTRF assay of the K-Ras / SOS1 interaction; format: biochemical; details: IC50 (against K-Ras G12D) to IC50 (against K-Ras G12S)
T1 construct: made in house; host or cells: E. coli (e.g., BL21 (DE3))
Method in brief: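 GST-K-Ras G12S with anti-GST-Eu donor and His-hSOS1 with anti-6His-XL665 acceptor in ~5 mM HEPES pH 7.4, ~150 mM NaCl, 1 mM DTT, 0.05% BSA, 0.0025% Igepal. Read after ~10 min or longer; IC50 from 665/620 nm ratio, duplicates at 10 µM down to 0.01 µM.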

[2] = system: GP2D cells; assay: Cell proliferation assay (CellTiter-Glo), K-Ras G12D cells; format: cell-based; details: GP2D cells (K-Ras G12D); read-out: Inhibition of GP2D Cells (IC50)
Method in brief: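 GP2D (K-Ras G12D) cells seeded in DMEM with 2 mM glutamine and 10% FBS, then dosed next day with a dilution series (e.g., 9-point 3-fold). Viability read by CellTiter-Glo luminescence after about 5 days. IC50 from four-parameter fit.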

[3] = system: A549 cells; assay: Cell proliferation assay (CellTiter-Glo), K-Ras G12S cells; format: cell-based; details: for IC50: Homo sapiens, A549, A549 cells (K-Ras G12S), read-out: Inhibition of A549 Cells (IC50); for ratio of IC50 against a G12D cell line to IC50 against a G12S cell line: K-Ras G12D cell line such as GP2D relative to K-Ras G12S cell line such as A549, greater than 1, 2, 3, 4, 5, 10, 15 or even greater, 8640 min
Method in brief: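 A549 cells (K-Ras G12S) in RPMI-1640 with 10% FBS, seeded in standard or ultra-low-attachment plates and dosed next day with a 10-point 3-fold series. Viability read about 6 days later by CellTiter-Glo luminescence. IC50 from four-parameter fit.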

T1 sequence (P01116 1-188 isoform P01116-2 G12S): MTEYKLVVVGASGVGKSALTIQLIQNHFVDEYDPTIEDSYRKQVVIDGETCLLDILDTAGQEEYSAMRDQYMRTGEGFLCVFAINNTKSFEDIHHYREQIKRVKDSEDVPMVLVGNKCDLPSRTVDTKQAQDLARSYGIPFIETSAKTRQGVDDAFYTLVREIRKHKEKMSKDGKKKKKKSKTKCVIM

Structure (SMILES)	IC50 ([3]; bin ≤ 500 nM) [nM]	ratio of IC50 against a G12D cell line to IC50 against a G12S cell line [3]	IC50 ([3]; bin 500 nM to 5 µM) [nM]	Ratio of IC50 KRAS G12D vs. IC50 KRAS G12S [1]	IC50 [2] [nM]
CN1CCC[C@H]1COc1nc(N2CCOC3(CN(C(=O)n4cncn4)C3)C2)c2cc(Cl)c(-c3ccc(F)c4sc(N)c(C#N)c34)c(F)c2n1 [Compound A137, 4-(4-(2-(1H-1,2,4-triazole-1-carbonyl)-5-oxa-2,8-diazaspiro[3.5]nonan-8-yl)-6-chloro-8-fluoro-2-(((S)-1-methylpyrrolidin-2-yl)methoxy)quinazolin-7-yl)-2-amino-7-fluorobenzo[b]thiophene-3-carbonitrile]	≤ 500	–	–	A (A: indicates that the ratio of IC50 against KrasG12D vs. IC50 against KrasG12S is 1-fold or greater)	1000 to 10000
Nc1nc2c(-c3c(Cl)cc4c(N5CCCN(C(=O)n6cncn6)CC5)nc(OC[C@@]56CCCN5C[C@H](F)C6)nc4c3F)ccc(F)c2s1 [Compound A191, (4-(7-(2-amino-7-fluorobenzo[d]thiazol-4-yl)-6-chloro-8-fluoro-2-(((2R,7aS)-2-fluorotetrahydro-1H-pyrrolizin-7a(5H)-yl)methoxy)quinazolin-4-yl)-1,4-diazepan-1-yl)(1H-1,2,4-triazol-1-yl)methanone]	–	–	500 to 5000	A (A: indicates that the ratio of IC50 against KrasG12D vs. IC50 against KrasG12S is 1-fold or greater)	1000 to 10000
Cc1ncn(C(=O)N2CC3CCN(c4nc(OC[C@@]56CCCN5C[C@H](F)C6)nc5c(F)c(-c6ccc(F)c7sc(N)c(C#N)c67)c(Cl)cc45)C3C2)n1 (stereo partly drawn) [Compound A304, 2-amino-4-(6-chloro-8-fluoro-2-(((2R,7aS)-2-fluorotetrahydro-1H-pyrrolizin-7a(5H)-yl)methoxy)-4-(5-(3-methyl-1 H-1,2,4-triazole-1-carbonyl)hexahydropyrrolo[3,4-b]pyrrol-1(2H)-yl)quinazolin-7-yl)-7-fluorobenzo[b]thiophene-3-carbonitrile]	≤ 500	greater than 1	–	A (A: indicates that the ratio of IC50 against KrasG12D vs. IC50 against KrasG12S is 1-fold or greater)	1000 to 10000
N#CCc1ncn(C(=O)N2CC3(C2)CN(c2nc(OC[C@@]45CCCN4C[C@H](F)C5)nc4c(F)c(-c5ccc(F)c6sc(N)c(C#N)c56)c(Cl)cc24)CCO3)n1 [Compound A110, 2-amino-4-(6-chloro-4-(2-(3-(cyanomethyl)-1H-1,2,4-triazole-1-carbonyl)-5-oxa-2,8-diazaspiro[3.5]nonan-8-yl)-8-fluoro-2-(((2R,7aS)-2-fluorotetrahydro-1H-pyrrolizin-7a(5H)-yl)methoxy)quinazolin-7-yl)-7-fluorobenzo[b]thiophene-3-carbonitrile]	≤ 500	greater than 1	–	A (A: indicates that the ratio of IC50 against KrasG12D vs. IC50 against KrasG12S is 1-fold or greater)	1000 to 10000
N#Cc1c(N)sc2c(F)ccc(-c3ncc4c(N5CCCC6(CN(C(=O)n7cncn7)C6)C5)nc(OC[C@@]56CCCN5C[C@H](F)C6)nc4c3F)c12 [Compound A134, 4-(4-(2-(1H-1,2,4-triazole-1-carbonyl)-2,6-diazaspiro[3.5]nonan-6-yl)-8-fluoro-2-(((2R,7aS)-2-fluorotetrahydro-1H-pyrrolizin-7a(5H)-yl)methoxy)pyrido[4,3-d]pyrimidin-7-yl)-2-amino-7-fluorobenzo[b]thiophene-3-carbonitrile]	–	–	500 to 5000	A (A: indicates that the ratio of IC50 against KrasG12D vs. IC50 against KrasG12S is 1-fold or greater)	1000 to 10000
N#Cc1ccn(C(=O)N2C3CCC2CN(c2nc(OC[C@@]45CCCN4C[C@H](F)C5)nc4c(F)c(-c5ccc(F)c6sc(N)c(C#N)c56)c(Cl)cc24)C3)n1 [Compound A224, 1-(3-(7-(2-amino-3-cyano-7-fluorobenzo[b]thiophen-4-yl)-6-chloro-8-fluoro-2-(((2R,7aS)-2-fluorotetrahydro-1H-pyrrolizin-7a(5H)-yl)methoxy)quinazolin-4-yl)-3,8-diazabicyclo[3.2. 1]octane-8-carbonyl)-1H-pyrazole-3-carbonitrile]	–	–	500 to 5000	A (A: indicates that the ratio of IC50 against KrasG12D vs. IC50 against KrasG12S is 1-fold or greater)	≤ 1000
Nc1nc2c(-c3c(Cl)cc4c(N5CCCC6(CN(C(=O)n7cncn7)C6)C5)nc(OC[C@@]56CCCN5C[C@H](F)C6)nc4c3F)ccc(F)c2s1 [Compound A136, (6-(7-(2-amino-7-fluorobenzo[d]thiazol-4-yl)-6-chloro-8-fluoro-2-(((2R,7aS)-2-fluorotetrahydro-1H-pyrrolizin-7a(5H)-yl)methoxy)quinazolin-4-yl)-2,6-diazaspiro[3.5]nonan-2-yl)(1H-1,2,4-triazol-1-yl)methanone]	–	greater than 1	500 to 5000	A (A: indicates that the ratio of IC50 against KrasG12D vs. IC50 against KrasG12S is 1-fold or greater)	1000 to 10000
N#Cc1c(N)sc2c(F)ccc(-c3c(Cl)cc4c(N5CCC6C5CCCN6C(=O)n5cncn5)nc(OC[C@@]56CCCN5C[C@H](F)C6)nc4c3F)c12 (stereo partly drawn) [Compound A152, 4-(4-(4-(1H-1,2,4-triazole-1-carbonyl)octahydro-1H-pyrrolo[3,2-b]pyridin-1-yl)-6-chloro-8-fluoro-2-(((2R,7aS)-2-fluorotetrahydro-1H-pyrrolizin-7a(5H)-yl)methoxy)quinazolin-7-yl)-2-amino-7-fluorobenzo[b]thiophene-3-carbonitrile]	≤ 500	greater than 1	–	A (A: indicates that the ratio of IC50 against KrasG12D vs. IC50 against KrasG12S is 1-fold or greater)	≤ 1000

Further lines, with some results ahead:

IC50 ([3]; bin ≤ 500 nM) [nM]	ratio of IC50 against a G12D cell line to IC50 against a G12S cell line [3]	IC50 ([3]; bin 500 nM to 5 µM) [nM]	Structure (SMILES)	Ratio of IC50 KRAS G12D vs. IC50 KRAS G12S [1]	IC50 [2] [nM]
≤ 500	–	–	N#Cc1c(N)sc2c(F)ccc(-c3c(Cl)cc4c(N5CCCC6(CN(C(=O)n7cncn7)C6)C5)nc(OC[C@@]56CCCN5C[C@H](F)C6)nc4c3F)c12 [Compound A129, 4-(4-(2-(1H-1,2,4-triazole-1-carbonyl)-2,6-diazaspiro[3.5]nonan-6-yl)-6-chloro-8-fluoro-2-(((2R,7aS)-2-fluorotetrahydro-1H-pyrrolizin-7a(5H)-yl)methoxy)quinazolin-7-yl)-2-amino-7-fluorobenzo[b]thiophene-3-carbonitrile]	A (A: indicates that the ratio of IC50 against KrasG12D vs. IC50 against KrasG12S is 1-fold or greater)	1000 to 10000
≤ 500	greater than 1	–	N#Cc1c(N)sc2c(F)ccc(-c3c(Cl)cc4c(N5CCC6(CN(C(=O)n7cncn7)C6)C5)nc(OC[C@@]56CCCN5C[C@H](F)C6)nc4c3F)c12 [Compound A277, 4-(4-(2-(1H-1,2,4-triazole-1-carbonyl)-2,6-diazaspiro[3.4]octan-6-yl)-6-chloro-8-fluoro-2-(((2R,7aS)-2-fluorotetrahydro-1H-pyrrolizin-7a(5H)-yl)methoxy)quinazolin-7-yl)-2-amino-7-fluorobenzo[b]thiophene-3-carbonitrile]	A (A: indicates that the ratio of IC50 against KrasG12D vs. IC50 against KrasG12S is 1-fold or greater)	1000 to 10000
≤ 500	–	–	N#Cc1c(N)sc2c(F)ccc(-c3c(Cl)cc4c(N5CC6(CCCCN(C(=O)n7cncn7)C6)C5)nc(OC[C@@]56CCCN5C[C@H](F)C6)nc4c3F)c12 [Compound A285, 4-(4-(6-(1H-1,2,4-triazole-1-carbonyl)-2,6-diazaspiro[3.6]decan-2-yl)-6-chloro-8-fluoro-2-(((2R,7aS)-2-fluorotetrahydro-1H-pyrrolizin-7a(5H)-yl)methoxy)quinazolin-7-yl)-2-amino-7-fluorobenzo[b]thiophene-3-carbonitrile]	A (A: indicates that the ratio of IC50 against KrasG12D vs. IC50 against KrasG12S is 1-fold or greater)	1000 to 10000
≤ 500	–	–	N#Cc1c(N)sc2c(F)ccc(-c3c(Cl)cc4c(OC5CCCCN(C(=O)n6cncn6)C5)nc(OC[C@@]56CCCN5C[C@H](F)C6)nc4c3F)c12 (stereo partly drawn) [Compound A258, 4-(4-((1-(1H-1,2,4-triazole-1-carbonyl)azepan-3-yl)oxy)-6-chloro-8-fluoro-2-(((2R,7aS)-2-fluorotetrahydro-1H-pyrrolizin-7a(5H)-yl)methoxy)quinazolin-7-yl)-2-amino-7-fluorobenzo[b]thiophene-3-carbonitrile]	A (A: indicates that the ratio of IC50 against KrasG12D vs. IC50 against KrasG12S is 1-fold or greater)	≤ 1000
